Assays:
total MUC1 mRNA = test: MUC1 transcription assay (RT-PCR profiling screen) in P cells; format: cell-based, human; conditions: P cells, 24 hours
Experimental: qPCR was performed using a previously described protocol (Bittker, 2012). P cells seeded at 2000 cells/well in 384-well, clear bottom, white wall plates were grown for 24 hr, then treated with profiling compounds transferred by pinning to duplicate plates. JQ1 (250 nM) and DMSO were used for controls as above. After 24 hr, cells were washed and cDNAs were made using ABI Cells-to-Ct kit (Thermo Fisher Scientific®, Waltham, Mass.). MUC1 and HMBS delta Cp values were determined using a Roche LightCycler 480 Instrument and TaqMan probes for MUC1 FAM (4351368 assay ID Hs00159357_m1) and HMBS VIC (4448486-assay ID Hs00609297_m1) (Thermo Fisher Scientific®, Waltham, Mass.), in 5 μL reactions. The fold change effect of the compounds on total MUC1 mRNA was normalized to JQ1 and DMSO controls, as described above.

TMED9 = target: T1, TMED9 (Homo sapiens, UniProt Q9BVK6); test: TMED9 abundance (IF) in patient iPSC-derived kidney organoids; format: cell-based; conditions: 10 μM, 72 hours
T1 construct: TMED9 abundance in P cells at escalating temperatures (as indicated) with or without treatment with BRD-4780; endogenous in cells; host or cells: P cells (intact cells treated, then heated and lysed)
T1 sequence (Q9BVK6 38-235): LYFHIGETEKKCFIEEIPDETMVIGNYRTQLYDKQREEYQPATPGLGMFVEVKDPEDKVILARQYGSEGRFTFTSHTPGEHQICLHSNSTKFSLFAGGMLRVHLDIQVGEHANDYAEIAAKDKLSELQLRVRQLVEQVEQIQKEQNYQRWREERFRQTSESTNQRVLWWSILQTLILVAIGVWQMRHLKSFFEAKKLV
Experimental: Kidney organoids were immersion-fixed for 15 min in 4% PFA at 4° C. and subsequently frozen in OCT using dry ice and 100% ethanol. Six […] cryostat sections (CM1950, Leica) were thaw-mounted on microscope slides (Fisherbrand™ Superfrost™ Plus, Fisher Scientific) and kept in the cryostat (at −26° C.) for the duration of the sectioning process. Prior to immunostaining, organoid sections were rinsed in PBS for 5 min, incubated for 20 min at room temperature (RT) in PBS blocking solution containing 5% normal donkey serum (530-100ML, EMD Millipore) and 1.5% Tween® 20 (P1379, Sigma-Aldrich), then incubated overnight at 4° C. with primary antibodies diluted in the same blocking solution (1:500, monoclonal Armenian hamster anti-MUC1, Ab80952, Abcam; 1:500, monoclonal Fab-A-VSH anti-fsMUC1, AbD22655.4, Bio-Rad; 1:300 monoclonal Rat anti-E Cadherin [DECMA-1], ab11512, Abcam; 1:500 polyclonal Rabbit anti-Laminin, L9393-100UL, Sigma-Aldrich; 1:500 Na/K-ATPase, ab76020, Abcam; 1:300 Fluorescein labeled Lotus Tetragonolobus Lectin (LTL), FL-1321, Vector laboratories; 1:100, polyclonal, Rabbit anti-TMED9, 21620-1-AP, Proteintech). […]

rhodopsin P23H = test: GFP fluorescence in N cells expressing rhodopsin P23H-GFP; format: cell-based, human; conditions: 5 μM, 24 hours
Experimental: N cells plated in 96-well plates were transfected with 20 ng/well of P23H mutant rhodopsin-GFP plasmid DNA using Lipofectamine 3000 (Thermo Fisher Scientific®). Eight hr post-transfection, the cells were washed and processed as described below.
For the GFP-rhodopsin experiments (FIGS. 15D and 15E), cells were identified by digital phase contrast. GFP signal was calculated only in cells expressing GFP signal above a minimal background (to identify successfully transfected cells) and the mean intensity was averaged for each well.
Detection of MUC1-fs in P cells at baseline and following secretory pathway perturbations was performed using immunoblot and IF analyses. For immunoblot experiments (FIGS. 5E and 13D), P cells were grown in 6-well plates to high confluence. For IF experiments (FIGS. 5B-5D and 13A-13C), P cells were plated in 384-well plates at 12,000 cells/well. Following 24 hr, cells were treated with 5 μM BRD-4780 or DMSO alone, or in combination with 100 nM Bafilomycin A (B1793, Sigma-Aldrich), or 200 ng/mL Brefeldin A (B7651, Sigma-Aldrich) for a maximum period of 24 hr as indicated. For TMED9 or Nischarin depletion experiments, transduced/transfected P cells were plated either in 96-well plates at 60,000 cells/well for IF (FIGS. 6C, 6D and 14B), or grown in 6-well plates to high confluence for immunoblot detection (FIGS. 6B and 14C). […]

With `CC(C)[C@@H]1[C@H]2CC[C@H](C2)[C@H]1N` (racemic) [BRD-4780, 2-endo-amino-3-exo-isopropylbicyclo[2.2.1]heptane] the “effect on MUC1 transcriptional regulation” value (total MUC1 mRNA) was “no effect on MUC1 transcriptional regulation”, the “TMED9 abundance in patient organoids” value (TMED9) was “reduced TMED9 to levels comparable to cells in N1 organoids” and the “GFP fluorescence of GFP-rhodopsin P23H” value (rhodopsin P23H) was “significantly decreased GFP fluorescence at 24 hours”.

Reference: patent publication US12023308B2, “Agents for reversing toxic proteinopathies” (THE BROAD INSTITUTE, INC., priority 2019, dated 2024)
